From ChEMBL document CHEMBL6115022, “The Heterogeneous Kinetic Origins of the Binding Properties of Orthosteric Ligands at Heteromeric Nicotinic Acetylcholine Receptors” (J Med Chem, 2025) come the findings set out here.

A short description of experiment [1]: Selectivity index, ratio of Ki for displacement of [3H]epibatidine from rat alpha3beta4 nAChR extracted from HEK293 cell membrane to Ki for displacement of [3H]epibatidine from human alpha4beta2 nAChR extracted from HEK293 cell membrane.
Experiment [2] addresses T1, Neuronal acetylcholine receptor; alpha4/beta2 (Homo sapiens, UniProt P17787+P43681). Nature of the experiment: Displacement of [3H]epibatidine from human alpha4beta2 nAChR extracted from HEK293 cell membrane assessed as dissociation constant incubated for 240 mins by liquid scintillation counting method. It is filed as cell membranes.
Experiment [3] concerns the target T1, Neuronal acetylcholine receptor; alpha4/beta2. Put plainly: Displacement of [3H]epibatidine from human alpha4beta2 nAChR extracted from HEK293 cell membrane assessed as residence time incubated for 240 mins by liquid scintillation counting method. The experiment is classed as cell membranes. In general terms: Loss of bound radioactivity is the signal in a displacement assay; it reports binding, not function.

For experiment [4] the target is unchanged. Put plainly: Displacement of [3H]epibatidine from human alpha4beta2 nAChR extracted from HEK293 cell membrane assessed as inhibition constant incubated for 240 mins by liquid scintillation counting method. It is filed as cell membranes.
In experiment [5] the target is T2, Neuronal acetylcholine receptor; alpha3/beta4 (Rattus norvegicus, UniProt P04757+P12392). Nature of the experiment: Displacement of [3H]epibatidine from rat alpha3beta4 nAChR extracted from HEK293 cell membrane assessed as inhibition constant incubated for 60 to 120 mins by liquid scintillation counting method. The experiment is classed as cell membranes.
T2 sequence (P04757 whole entry): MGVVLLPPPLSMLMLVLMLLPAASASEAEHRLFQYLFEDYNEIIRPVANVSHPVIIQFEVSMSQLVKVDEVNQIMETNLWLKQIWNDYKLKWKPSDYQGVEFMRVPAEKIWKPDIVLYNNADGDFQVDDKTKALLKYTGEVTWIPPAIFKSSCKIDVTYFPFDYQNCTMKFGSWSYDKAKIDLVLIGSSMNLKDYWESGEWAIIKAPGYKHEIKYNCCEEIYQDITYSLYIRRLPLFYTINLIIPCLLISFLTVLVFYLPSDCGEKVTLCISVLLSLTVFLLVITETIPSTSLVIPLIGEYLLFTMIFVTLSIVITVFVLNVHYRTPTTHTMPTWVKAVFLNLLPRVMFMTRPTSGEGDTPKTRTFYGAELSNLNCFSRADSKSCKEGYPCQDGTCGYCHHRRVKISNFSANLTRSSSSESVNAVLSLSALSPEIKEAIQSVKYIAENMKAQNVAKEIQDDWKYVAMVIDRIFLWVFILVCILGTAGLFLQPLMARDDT
T2 sequence (P12392 whole entry): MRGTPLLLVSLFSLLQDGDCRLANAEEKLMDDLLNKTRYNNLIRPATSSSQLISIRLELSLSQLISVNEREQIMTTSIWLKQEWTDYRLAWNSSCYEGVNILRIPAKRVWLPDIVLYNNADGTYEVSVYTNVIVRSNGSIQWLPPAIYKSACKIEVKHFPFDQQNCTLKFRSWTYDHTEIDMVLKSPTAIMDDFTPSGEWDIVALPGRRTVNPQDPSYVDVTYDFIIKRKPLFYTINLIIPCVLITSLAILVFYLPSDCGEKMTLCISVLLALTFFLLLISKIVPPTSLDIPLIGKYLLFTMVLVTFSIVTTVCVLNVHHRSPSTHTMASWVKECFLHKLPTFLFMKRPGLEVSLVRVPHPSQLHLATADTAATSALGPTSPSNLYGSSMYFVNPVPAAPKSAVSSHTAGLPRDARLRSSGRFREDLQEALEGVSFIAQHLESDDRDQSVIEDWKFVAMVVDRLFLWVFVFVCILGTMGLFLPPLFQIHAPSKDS
The target of experiment [6] is T2, Neuronal acetylcholine receptor; alpha3/beta4. Put plainly: Displacement of [3H]epibatidine from rat alpha3beta4 nAChR extracted from HEK293 cell membrane assessed as dissociation constant incubated for 60 to 120 mins by liquid scintillation counting method. The experiment is classed as cell membranes.
In experiment [7] the target is T3, Neuronal acetylcholine receptor; alpha3/beta4 (Rattus norvegicus) (UniProt P04757+P12392). Nature of the experiment: Displacement of [3H]epibatidine from rat alpha3beta4 nAChR extracted from HEK293 cell membrane assessed as dissociation binding constant (Koff) incubated for 60 to 120 mins by liquid scintillation counting method. It is filed as cell membranes. To be noted: filed as agonist, time lower 60.0 min, time upper […].

Experiment [8] addresses T3, Neuronal acetylcholine receptor; alpha3/beta4 (Rattus norvegicus). Put plainly: Displacement of [3H]epibatidine from rat alpha3beta4 nAChR extracted from HEK293 cell membrane assessed as residence time incubated for 60 to 120 mins by liquid scintillation counting method. It is filed as cell membranes. To be noted: filed as agonist, time lower 60.0 min, time upper […].

Experiment [9] concerns the target T1, Neuronal acetylcholine receptor; alpha4/beta2. Nature of the experiment: Displacement of [3H]epibatidine from human alpha4beta2 nAChR extracted from HEK293 cell membrane assessed as association binding constant (Kon) incubated for 240 mins by liquid scintillation counting method. The experiment is classed as cell membranes.
For experiment [10] the target is unchanged. Nature of the experiment: Displacement of [3H]epibatidine from human alpha4beta2 nAChR extracted from HEK293 cell membrane assessed as dissociation binding constant (Koff) incubated for 240 mins by liquid scintillation counting method. The experiment is classed as cell membranes.
In experiment [11] the target is T3, Neuronal acetylcholine receptor; alpha3/beta4 (Rattus norvegicus). Put plainly: Displacement of [3H]epibatidine from rat alpha3beta4 nAChR extracted from HEK293 cell membrane assessed as association binding constant (Kon) incubated for 60 to 120 mins by liquid scintillation counting method. The experiment is classed as cell membranes. To be noted: filed as agonist, time lower 60.0 min, time upper […].

Experiment [12] addresses T1, Neuronal acetylcholine receptor; alpha4/beta2. Put plainly: Displacement of [3H]epibatidine from human alpha4beta2 nAChR extracted from HEK293 cell membrane assessed as fold increase in […] binding constant (Koff) incubated for 240 mins by liquid scintillation counting method relative to (+)-DHbetaE. The experiment is classed as cell membranes. To be noted: filed as antagonist.

Experiment [13] shares this target. Put plainly: Displacement of [3H]epibatidine from human alpha4beta2 nAChR extracted from HEK293 cell membrane assessed as fold increase in association binding constant (Kon) incubated for 240 mins by liquid scintillation counting method relative to (+)-DHbetaE. It is filed as cell membranes. To be noted: filed as antagonist.
Experiment [14] is described as follows: Selectivity index, ratio of K(off) for displacement of [3H]epibatidine from human alpha4beta2 nAChR extracted from HEK293 cell membrane to K(off) for displacement of [3H]epibatidine from rat alpha3beta4 nAChR extracted from HEK293 cell membrane.
Experiment [15] is described as follows: Selectivity index, ratio of K(on) for displacement of [3H]epibatidine from human alpha4beta2 nAChR extracted from HEK293 cell membrane to K(on) for displacement of [3H]epibatidine from rat alpha3beta4 nAChR extracted from HEK293 cell membrane.

T1 sequence (P17787 whole entry): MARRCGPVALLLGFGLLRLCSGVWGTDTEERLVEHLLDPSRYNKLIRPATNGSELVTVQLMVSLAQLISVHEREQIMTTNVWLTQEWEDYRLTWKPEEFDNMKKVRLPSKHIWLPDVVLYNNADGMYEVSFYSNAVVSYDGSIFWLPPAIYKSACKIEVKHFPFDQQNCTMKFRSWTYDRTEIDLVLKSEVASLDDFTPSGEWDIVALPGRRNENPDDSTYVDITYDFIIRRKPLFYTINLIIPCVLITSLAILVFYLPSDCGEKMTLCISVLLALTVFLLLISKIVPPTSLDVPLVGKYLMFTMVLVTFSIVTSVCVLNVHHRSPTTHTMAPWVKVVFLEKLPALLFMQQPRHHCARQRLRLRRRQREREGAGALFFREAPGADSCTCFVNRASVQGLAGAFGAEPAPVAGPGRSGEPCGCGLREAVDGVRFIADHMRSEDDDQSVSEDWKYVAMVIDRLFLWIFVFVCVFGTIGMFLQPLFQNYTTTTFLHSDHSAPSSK
T1 sequence (P43681 whole entry): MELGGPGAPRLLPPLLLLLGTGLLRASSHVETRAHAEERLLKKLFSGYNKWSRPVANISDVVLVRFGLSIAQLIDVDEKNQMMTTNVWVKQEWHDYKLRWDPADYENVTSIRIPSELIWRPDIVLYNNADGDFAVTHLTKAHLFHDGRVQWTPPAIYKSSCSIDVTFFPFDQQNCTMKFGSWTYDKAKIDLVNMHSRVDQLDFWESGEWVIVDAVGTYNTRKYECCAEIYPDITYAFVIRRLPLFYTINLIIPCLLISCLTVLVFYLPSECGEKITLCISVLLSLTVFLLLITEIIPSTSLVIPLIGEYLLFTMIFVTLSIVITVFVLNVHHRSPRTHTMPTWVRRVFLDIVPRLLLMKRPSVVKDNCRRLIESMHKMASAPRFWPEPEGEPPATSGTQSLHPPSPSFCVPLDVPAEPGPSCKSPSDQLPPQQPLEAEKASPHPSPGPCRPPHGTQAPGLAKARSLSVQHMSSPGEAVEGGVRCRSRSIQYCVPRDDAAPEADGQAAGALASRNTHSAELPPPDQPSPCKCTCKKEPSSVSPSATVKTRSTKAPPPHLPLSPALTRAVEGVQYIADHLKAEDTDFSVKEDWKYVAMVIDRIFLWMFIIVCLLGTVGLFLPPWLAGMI

As a reminder, the Kd is the free concentration of one partner at which half of the binding sites on the other are occupied at equilibrium, for simple one-to-one binding. One may read the Ki as a dissociation constant, usually derived from enzyme kinetics or from competition with a known ligand. Consider `O=c1cccc2n1C[C@@H]1CNC[C@H]2C1` [CYTISINICLINE], for which the Ratio Ki in [1] came to 150. Moreover, the Kd amounted to 0.21 nM in experiment [2] and 150 nM in [6]. For the same compound, the TIME turned out to be 0.367 h in [3] (filed as agonist) and 0.075 h in experiment [8]. Also, the Ki in experiment [4] is 0.2 nM; in experiment [5], 110 nM. In addition, the K worked out at 0.24 min⁻¹ in experiment [7], 4.33e+06 M⁻¹ s⁻¹ in experiment [9] (filed as agonist), 0.05 min⁻¹ in experiment [10] (filed as agonist) and 33300 M⁻¹ s⁻¹ in experiment [11].
With `Cc1ncccc1OC[C@@H]1CCCN1` [POZANICLINE], the results for the TIME in experiment [3] (filed as agonist) and in experiment [8] were 0.0783 h and 0.04 h, respectively. Further, the Ki in experiment [5] was 10000 nM. In addition, the Kd in experiment [6] worked out at 17000 nM. Besides, the K in experiment [7] is 0.44 min⁻¹; in experiment [9] (filed as agonist), 517000 M⁻¹ s⁻¹; in experiment [10] (filed as agonist) it was 0.23 min⁻¹; in [11], 0.03 10^-3/nM/min.
On to `CCOc1cncc(/C=C/CCNC)c1`, for which the Ratio Ki in [1] amounted to 7000. Moreover, the Kd in experiment [2] amounted to 1.7 nM; in experiment [6] it was 12000 nM. Moreover, the TIME in experiment [3] (filed as agonist) worked out at 0.0417 h; in experiment [8] it was 0.0283 h. Besides, the Ki in experiment [4] was 0.8 nM; in experiment [5] it was 25000 nM. Moreover, the K is 0.77 min⁻¹ in [7], 4.83e+06 M⁻¹ s⁻¹ in experiment [9] (filed as agonist), 0.57 min⁻¹ in [10] (filed as agonist) and 0.064 10^-3/nM/min in experiment [11].
Take `Clc1ccc(C2CC3CCC2N3)cn1` (racemic): the TIME in [3] (filed as agonist) was found to be 1.4 h; in experiment [8], 0.103 h. The K in [7] was 0.17 min⁻¹; in experiment [9] (filed as agonist) it was 2.17e+07 M⁻¹ s⁻¹; in experiment [10] (filed as agonist), 0.012 min⁻¹; in experiment [11] it was 2.17e+07 M⁻¹ s⁻¹.
As to `C[N+](C)(C)CCOC(N)=O` [CARBAMOYLCHOLINE], in experiment [1], the Ratio Ki came out at 8. Moreover, the Kd is 200 nM in experiment [2] and 1500 nM in [6]. Besides, the values for the TIME in [3] (filed as agonist) and in experiment [8] were 0.09 h and 0.06 h, respectively. The Ki came out at 56 nM in experiment [4] and 2000 nM in experiment [5]. For the same compound, the K in experiment [7] was 0.33 min⁻¹; in experiment [9] (filed as agonist), 16700 M⁻¹ s⁻¹; in experiment [10] (filed as agonist), 0.25 min⁻¹; in experiment [11], 0.31 10^-3/nM/min.
For `CO[C@H]1CC=C2CCN3CCC4=C(CC(=O)OC4)[C@]23C1`, in experiment [3] (filed as antagonist), the TIME amounted to 1.87 h. For the same compound, the results for the K in experiment [9] (filed as antagonist) and in experiment [10] (filed as antagonist) were 0.3 10^-3/nM/min and 0.01 min⁻¹, respectively.
Turning to `CO[C@H]1CC=C2CCN3CCc4ccc(O)cc4[C@]23C1`, in experiment [2], the Kd was 2.9 nM. Also, the TIME in [3] (filed as antagonist) was 0.15 h. Moreover, the Ki in [4] is 3.1 nM. The K was 750000 M⁻¹ s⁻¹ in experiment [9] (filed as antagonist) and 0.12 min⁻¹ in [10] (filed as antagonist). Further, the Ratio in experiment [12] turned out to be 13; in [13] it was 130.
On to `OCCCCC#Cc1cncc(OC[C@@H]2CCN2)c1`, for which, in experiment [1], the Ratio Ki is 7000. For the same compound, the Kd in experiment [2] was found to be 0.006 nM; in experiment [6], 2200 nM. The TIME in experiment [3] (filed as agonist) came out at 4.5 h; in experiment [8] it was 0.0467 h. For the same compound, the Ki in experiment [4] was found to be 0.017 nM; in experiment [5] it was 2200 nM. Further, the values for the Ratio in experiment [14] and in experiment [15] were 100 and 3000, respectively. For the same compound, the K in [7] was 0.39 min⁻¹; in experiment [9] (filed as agonist), 1.12e+07 M⁻¹ s⁻¹; in experiment [10] (filed as agonist), 0.004 min⁻¹; in experiment [11] it was 0.2 10^-3/nM/min.
Take `CN1CCC[C@H]1c1cccnc1`: the TIME in experiment [3] (filed as agonist) and in experiment [8] was 0.0683 h throughout. Besides, the K in [7] was 0.3 min⁻¹; in experiment [9] (filed as agonist), 3.83e+06 M⁻¹ s⁻¹; in experiment [10] (filed as agonist), 0.27 min⁻¹; in [11], 33300 M⁻¹ s⁻¹.
